Where two headings read alike, the source gives them in different places.
Assays:
[1] = Observed clearance ratio and fraction reabsorbed (Freab, Freab′) calculated from CLR, fu,p and GFR; conditions: for Freab: observed/apparent, 1 - CLR/(GFR x fu,p), GFR 120 mL/min
Experimental: The clearance ratio was calculated from clinical data using Eqs. […] For the remaining drugs the fraction reabsorbed (Freab) was calculated using Eq.
GFR values for healthy subjects may vary as a result of biological as well as inter-individual variation and also the method of measurement. […] Individual GFR values for subjects in clinical trials databases were generally not available.
In the proposed model, the nephron is represented as five compartments, namely the glomerulus and four tubular regions, as depicted in Fig. 1. The tubular compartments in the model, listed in anatomical order starting from the glomerulus are: the proximal tubule (PT), the loop of Henle (LoH), the distal tubule (DT) and the collecting duct (CD). […] The relationship between Freab′ and Freab is shown in Eq. (11). The predicted overall Freab′ was calculated from the predicted Freab′ in each (i) tubular region (Freab,i′), as shown in Eq. (12).

[2] = cited from earlier work
[3] = physchem; conditions: pH 7.4; for logD: octanol/buffer
From the text: (§1) The pKa values associated with ionisable centres identified within a given drug were used to calculate the fraction of drug ionised at pH 6.5. Drugs were then classified into groups as follows: drugs with > 50% unionised at pH 6.5 were classified as “Neutral”; drugs with > 50% ionised as mono −/di −/tri-protic acids or bases were classified as “Acid” or “Base”, respectively; “Zwitterions” were classified as drugs with > 50% ionised, with the major ionised species having no net charge; all other drugs were classified as amphoteric. […] LogD6.5 for neutral, amphoteric and zwitterion drugs were assumed to be equal to LogD7.4.

[4] = Ionisation classification at pH 6.5 from pKa; type: physicochemical; conditions: predominant species (> 50%) at pH 6.5 from measured or calculated pKa
From the text: as §1

[5] = LogD6.5 estimated from LogD7.4 and pKa; conditions: for logD: octanol/buffer
From the text: as §1

[6] = Caco-2 apparent permeability (Papp), apical to basolateral, pH 6.5-7.4 gradient, efflux inhibitor cocktail; conditions: human, Caco-2, pH 6.5
Experimental: The assay was performed using the apical to basolateral pH gradient format of pH 6.5 to pH 7.4. […] The efflux transporter inhibitor cocktail was used to minimise the effect of efflux transporters expressed in Caco-2 cells (e.g. P-glycoprotein, BCRP and MRP2) on the estimate of apical to basolateral Papp of substrates for such transporters.

[7] = calculated from observed CLR, fu,p and GFR
[8] = healthy adult subjects, overall weighted mean of literature values, absolute (not normalised), ref Supplementary Results Table S2.1
[9] = healthy subjects, plasma and urine data from same subjects, normalised for subject weight and body surface area where necessary, ref Table S2.1
[10] = overall weighted mean of values obtained from a literature survey, ref Table S2.1

| Structure (SMILES) | Apparent Freab [1, 7] | Apparent Freab’ [1, 7] | CLR [2, 8] [mL/min] | Overall weighted mean CLR [2, 9] [mL/min] | CLR Observed [2, 10] [mL/min] | Ionisation at pH 6.5 [4] | further results |
| --- | --- | --- | --- | --- | --- | --- | --- |
| Cc1cccc(C)c1OCC(C)N (stereo not drawn) [Mexiletine] | -0.252 | -0.254 | 71.6 | 71.6 | 71.61 | – | – |
| Cn1c(=O)c2[nH]cnc2n(C)c1=O [Theophylline] | – | – | 5.50 | 5.5 | 5.50 | Neutral | LogD7.4 [3]: − 0.09; LogD6.5 ([5]; pH 6.5): − 0.06 |
| Cc1cc(=O)n(-c2ccccc2)n1C [Antipyrine] | – | – | – | – | – | Neutral | Apparent Freab ([1]; human, in vivo): 0.989; Apparent Freab’ ([1]; human, in vivo): 0.997; CLR ([2]; human, in vivo): 1.22 mL/min; CLR Observed ([2]; human, in vivo): 1.22 mL/min; Overall weighted mean CLR ([2]; human, in vivo): 1.2 mL/min |
| COc1c(N2C[C@@H]3CCCN[C@@H]3C2)c(F)cc2c(=O)c(C(=O)O)cn(C3CC3)c12 [Moxifloxacin] | – | – | – | – | – | Zwitterion | – |
| CC[C@@H](C(N)=O)N1CCCC1=O [Levetiracetam] | 0.636 | 0.641 | 39.4 | 39.4 | 39.35 | Neutral | Freab [1]: 0.64; Papp A→B at 2 h [6]: 15.7 ×10⁻⁶ cm/s |
| CN(C)CCC(c1ccc(Cl)cc1)c1ccccn1 (stereo not drawn) [Chlorpheniramine] | – | – | – | – | – | – | Papp A→B at 2 h [6]: 28.5 ×10⁻⁶ cm/s |
| OC(Cn1cncn1)(Cn1cncn1)c1ccc(F)cc1F [Fluconazole] | 0.848 | 0.855 | 15.7 | 15.7 | 15.68 | – | Freab [1]: 0.85; Papp A→B at 2 h [6]: 36.3 ×10⁻⁶ cm/s |
| CC(=O)NC[C@H]1CN(c2ccc(N3CCOCC3)c(F)c2)C(=O)O1 [Linezolid] | 0.576 | 0.581 | 39.5 | 39.5 | 39.54 | – | Freab [1]: 0.58 |
| CN(C)[C@@H]1C(O)=C(C(N)=O)C(=O)[C@@]2(O)C(O)=C3C(=O)c4c(O)cccc4[C@@](C)(O)[C@H]3C[C@@H]12 [Tetracycline] | 0.053 | 0.053 | 86.4 | 86.4 | 86.38 | – | Freab [1]: 0.05; Papp A→B at 2 h [6]: 1.1 ×10⁻⁶ cm/s |
| C[C@]12C=CC(=O)C=C1CC[C@@H]1[C@@H]2[C@@H](O)C[C@@]2(C)[C@H]1CC[C@]2(O)C(=O)CO [Prednisolone] | 0.099 | 0.100 | 34.3 | 34.3 | 34.30 | Neutral | Freab [1]: 0.10; LogD6.5 ([5]; calculated from pKa and LogD7.4): […] |
| C[C@H]1C[C@H]2[C@@H]3CCC4=CC(=O)C=C[C@]4(C)[C@@]3(F)[C@@H](O)C[C@]2(C)[C@@]1(O)C(=O)CO [Betamethasone] | 0.780 | 0.787 | 9.50 | 9.5 | 9.50 | Neutral | Freab [1]: 0.78; logD [3]: 1.99; logD ([5]; pH 6.5): 1.99 |
| Cc1ncc([N+](=O)[O-])n1CCO [Metronidazole] | 0.918 | 0.925 | 9.64 | 9.6 | 9.64 | Neutral | Freab [1]: 0.92; Papp A→B at 2 h [6]: 64.7 ×10⁻⁶ cm/s |
| Nc1ccc(S(=O)(=O)c2ccc(N)cc2)cc1 [Dapsone] | – | – | 5.50 | 5.5 | 5.50 | Neutral | logD [3]: 0.85; logD ([5]; pH 6.5): 0.85; Papp A→B at 2 h [6]: 49.7 ×10⁻⁶ cm/s |
| CC(C)NCC(O)COc1ccc(CC(N)=O)cc1 (stereo not drawn) [Atenolol] | -0.247 | -0.249 | – | – | – | Base | – |
| CN(C)CCCC1(c2ccc(F)cc2)OCc2cc(C#N)ccc21 (stereo not drawn) [Citalopram] | -0.086 | -0.087 | 65.2 | 65.2 | 65.17 | Base | – |
| CN1CCN(c2c(F)cc3c(=O)c(C(=O)O)cn4c3c2SCC4)CC1 [Rufloxacin] | – | – | – | 16.8 | – | – | – |
| CC(CC(c1ccccc1)c1ccccc1)NC(C)(C)C (stereo not drawn) [Terodiline] | – | – | – | 11.1 | – | – | – |

| Structure (SMILES) | Apparent Freab [1, 7] | Apparent Freab’ [1, 7] | CLR [2, 8] [mL/min] | Overall weighted mean CLR [2, 9] [mL/min] | CLR Observed [2, 10] [mL/min] | Ionisation at pH 6.5 [4] | further results |
| --- | --- | --- | --- | --- | --- | --- | --- |
| CCN1CCC[C@H]1CNC(=O)c1c(OC)ccc(Br)c1OC [Remoxipride] | – | – | – | 35.6 | – | – | – |
| CO/N=C(\C(=O)N[C@@H]1C(=O)N2C(C(=O)O)=CCS[C@H]12)c1csc(N)n1 [Ceftizoxime] | – | – | – | 102.2 | – | – | – |
| Cn1c(=O)c2c(ncn2C)n(C)c1=O [Caffeine] | 0.987 | 0.995 | 1.06 | 1.1 | 1.06 | – | Freab [1]: 0.99; Freab ([1]; listed as caffeine): ≥ 0.99 |
| CO/N=C(\C(=O)N[C@@H]1C(=O)N2C(C(=O)O)=C(CSc3nc(C)c(CC(=O)O)s3)CS[C@H]12)c1csc(N)n1 [Cefodizime] | – | – | – | 29.1 | – | – | – |
| COc1ccc([C@@H]2Sc3ccccc3N(CCN(C)C)C(=O)[C@@H]2OC(C)=O)cc1 [Diltiazem] | – | – | – | 48.0 | – | – | – |
| CC(C)c1nc(N(C)S(C)(=O)=O)nc(-c2ccc(F)cc2)c1/C=C/[C@@H](O)C[C@@H](O)CC(=O)O [Rosuvastatin] | – | – | – | 212.5 | – | – | – |
| CCCc1cc(=O)[nH]c(=S)[nH]1 [Propylthiouracil] | 0.833 | 0.840 | 3.20 | 3.2 | 3.20 | – | Freab [1]: 0.83 |
| CC(C)(C)NC[C@H](O)COc1nsnc1N1CCOCC1 [Timolol] | – | – | – | 125.1 | – | – | – |
| C[C@H]1NCc2cc(-c3ccc4c(=O)c(C(=O)O)cn(C5CC5)c4c3OC(F)F)ccc21 [Garenoxacin] | – | – | – | 41.8 | – | – | – |
| COc1ccc2c3c1O[C@H]1C[C@@H](O)C=C[C@@]31CCN(C)C2 [Galantamine] | – | – | – | 57.7 | – | – | – |
| C[C@H](Cn1cnc2c(N)ncnc21)OCP(=O)(O)O [Tenofovir] | – | – | – | 220.0 | – | – | – |
| CCOc1ccc2ccccc2c1C(=O)N[C@@H]1C(=O)N2[C@@H]1SC(C)(C)[C@@H]2C(=O)O [Nafcillin] | – | – | – | 138.4 | – | – | – |
| CO[C@H]1/C=C/O[C@@]2(C)Oc3c(C)c(O)c4c(O)c(c(/C=N/N5CCN(C)CC5)c(O)c4c3C2=O)NC(=O)/C(C)=C\C=C\[C@H](C)[C@H](O)[C@@H](C)[C@@H](O)[C@@H](C)[C@H](OC(C)=O)[C@@H]1C [Rifampin] | – | – | – | 18.7 | – | – | – |
| CC1CN(c2cc3c(cc2F)c(=O)c(C(=O)O)cn3-c2ccc(F)cc2F)CCN1 (stereo not drawn) [Temafloxacin] | – | – | – | 122.5 | – | – | – |
| C[C@@H](CN1CC(=O)NC(=O)C1)N1CC(=O)NC(=O)C1 [Dexrazoxane] | – | – | – | 133.3 | – | – | – |
| Nc1cccc2c1CN(C1CCC(=O)NC1=O)C2=O (stereo not drawn) [Lenalidomide] | – | – | – | 190.4 | – | – | – |
